Laboratory results taken from patent US20250084056A1, “SUBSTITUTED OXOISOINDOLINYL PIPERIDINE-2,6-DIONE COMPOUNDS” (BRISTOL-MYERS SQUIBB COMPANY, priority 2023, published 2025).

Experiments:
Format in all cases: cell-based
[1] = system: Phospho-Rb (Ser807/811); assay: Phospho-Retinoblastoma (pRB) Cellular Assay; conditions: Homo sapiens, OVCAR-3, NIH OVCAR3 cells, 24 hours; for IC50: concentration giving 50% response; for Emax: maximum response, reference compound at 10 μM = 100%, read-out: pRB Ymax
In short: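 OVCAR3 cells seeded overnight, then dosed with serial dilutions for 24 h at 37° C. Lysed with kit mix plus phosphatase inhibitor, ≥4 h at room temperature, read on EnVision; 100% response set by reference compound at 10 μM, giving IC50 and Ymax.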

[2] = molecular target: GSPT1 (Homo sapiens, UniProt P15170+Q96SW2); assay: GSPT1 Cellular Degradation Assay (DF15-GSPT1-ePL); design: expressed in transfected cells; conditions: DF15-GSPT1-ePL cells, 20 hours
GSPT1, sequence (P15170 whole entry, the tested form may be a part): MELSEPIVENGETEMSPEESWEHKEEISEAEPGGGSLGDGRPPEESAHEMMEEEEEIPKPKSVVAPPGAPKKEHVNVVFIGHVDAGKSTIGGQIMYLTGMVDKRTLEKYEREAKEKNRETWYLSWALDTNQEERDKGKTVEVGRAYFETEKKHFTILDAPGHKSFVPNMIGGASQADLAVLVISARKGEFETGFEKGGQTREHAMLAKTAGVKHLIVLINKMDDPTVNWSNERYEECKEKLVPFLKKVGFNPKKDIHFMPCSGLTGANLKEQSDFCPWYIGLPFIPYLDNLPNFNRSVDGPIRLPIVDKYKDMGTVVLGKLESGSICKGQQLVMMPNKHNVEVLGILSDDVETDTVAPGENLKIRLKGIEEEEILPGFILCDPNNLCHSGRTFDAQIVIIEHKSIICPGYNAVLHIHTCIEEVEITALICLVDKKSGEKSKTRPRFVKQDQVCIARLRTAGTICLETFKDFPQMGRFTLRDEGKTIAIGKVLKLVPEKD
GSPT1, sequence (Q96SW2 whole entry, the tested form may be a part): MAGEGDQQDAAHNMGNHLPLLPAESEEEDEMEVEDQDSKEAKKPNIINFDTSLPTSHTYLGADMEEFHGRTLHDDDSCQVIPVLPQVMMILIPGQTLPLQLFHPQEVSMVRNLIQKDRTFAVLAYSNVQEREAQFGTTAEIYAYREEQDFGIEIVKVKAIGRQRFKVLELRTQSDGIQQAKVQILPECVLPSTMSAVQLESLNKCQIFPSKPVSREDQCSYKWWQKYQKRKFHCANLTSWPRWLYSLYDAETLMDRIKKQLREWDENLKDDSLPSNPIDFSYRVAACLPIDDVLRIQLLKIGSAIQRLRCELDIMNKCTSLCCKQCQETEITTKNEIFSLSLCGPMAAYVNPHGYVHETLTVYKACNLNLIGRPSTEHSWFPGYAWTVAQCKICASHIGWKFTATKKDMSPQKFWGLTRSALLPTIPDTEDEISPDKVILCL
GSPT1, sequence (Q16531 whole entry partner, the tested form may be a part): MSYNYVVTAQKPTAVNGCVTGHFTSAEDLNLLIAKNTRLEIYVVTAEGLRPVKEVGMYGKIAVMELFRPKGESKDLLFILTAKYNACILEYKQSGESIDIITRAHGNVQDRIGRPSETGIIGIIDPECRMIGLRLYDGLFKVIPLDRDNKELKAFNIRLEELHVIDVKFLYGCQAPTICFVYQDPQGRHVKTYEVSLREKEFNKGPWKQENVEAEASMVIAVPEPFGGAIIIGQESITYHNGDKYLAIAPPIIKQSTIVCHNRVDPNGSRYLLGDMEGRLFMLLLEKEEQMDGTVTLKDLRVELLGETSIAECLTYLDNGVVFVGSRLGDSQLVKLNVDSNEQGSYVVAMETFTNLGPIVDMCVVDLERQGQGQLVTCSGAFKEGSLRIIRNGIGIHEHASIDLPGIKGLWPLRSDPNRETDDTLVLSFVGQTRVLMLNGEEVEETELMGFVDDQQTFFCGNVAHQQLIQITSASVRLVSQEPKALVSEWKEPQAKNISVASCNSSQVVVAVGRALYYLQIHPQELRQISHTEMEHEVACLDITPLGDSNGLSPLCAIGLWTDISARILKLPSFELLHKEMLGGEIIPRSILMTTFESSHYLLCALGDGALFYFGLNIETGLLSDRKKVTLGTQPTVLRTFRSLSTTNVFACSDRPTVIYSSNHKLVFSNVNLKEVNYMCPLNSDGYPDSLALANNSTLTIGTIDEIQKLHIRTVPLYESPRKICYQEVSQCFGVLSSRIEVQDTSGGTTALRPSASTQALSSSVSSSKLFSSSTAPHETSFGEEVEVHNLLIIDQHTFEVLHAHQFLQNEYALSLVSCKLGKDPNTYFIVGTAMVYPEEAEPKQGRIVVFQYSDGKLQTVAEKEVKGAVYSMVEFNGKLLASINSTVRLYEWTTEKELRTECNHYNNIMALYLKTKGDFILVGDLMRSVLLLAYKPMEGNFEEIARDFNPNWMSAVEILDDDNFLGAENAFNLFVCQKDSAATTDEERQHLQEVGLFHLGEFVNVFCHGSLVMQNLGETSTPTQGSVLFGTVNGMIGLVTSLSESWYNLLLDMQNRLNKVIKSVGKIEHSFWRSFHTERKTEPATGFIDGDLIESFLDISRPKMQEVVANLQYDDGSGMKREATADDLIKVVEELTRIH
In short: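 Human DF15 cells co-expressing a GSPT1–ePL fusion were treated with compound in RPMI 1640/10% FBS for 20 h at 37 °C. GSPT1 level was read by enzyme-fragment-complementation luminescence after 60 min with detection reagent. The reference degrader at […] defined 75% response; DC50 and Dmax were reported.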

[3] = molecular target: Cyclin E1 (Homo sapiens, UniProt P24864+Q96SW2); assay: Cyclin E1 Cellular Degradation Assay (MSD); design: endogenous in cells; host or cells: OVCAR3; conditions: for DC50 / Dmax: Cyclin E1 cellular degradation; for Dmax: maximum degradation; for Ratio of GSPT1 DC50/Cyclin E1 DC50: selectivity for degradation of Cyclin E1 over GSPT1
Cyclin E1, sequence (P24864 whole entry): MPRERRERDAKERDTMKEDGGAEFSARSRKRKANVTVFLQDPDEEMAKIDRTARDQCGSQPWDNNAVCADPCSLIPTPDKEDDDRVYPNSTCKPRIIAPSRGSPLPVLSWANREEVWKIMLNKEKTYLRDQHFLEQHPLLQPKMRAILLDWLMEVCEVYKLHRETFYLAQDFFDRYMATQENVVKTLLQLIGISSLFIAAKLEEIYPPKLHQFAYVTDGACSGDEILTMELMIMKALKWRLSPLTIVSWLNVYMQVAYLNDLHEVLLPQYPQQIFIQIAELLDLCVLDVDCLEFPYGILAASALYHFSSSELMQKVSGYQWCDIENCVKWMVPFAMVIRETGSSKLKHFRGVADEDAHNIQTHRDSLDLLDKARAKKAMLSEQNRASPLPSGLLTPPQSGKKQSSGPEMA
Cyclin E1, sequence (Q96SW2 whole entry): as the sequence (Q96SW2 whole entry, the tested form may be a part) above
Cyclin E1, sequence (Q16531 whole entry partner): as the sequence (Q16531 whole entry partner, the tested form may be a part) above
In short: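 OVCAR3 cells treated with compound for 24 h at 37 °C, lysed, and cyclin E1 measured by MSD sandwich immunoassay (rabbit capture, mouse detection anti-CCNE1). Reference degrader at […] defined 110% response; DC50 and Dmax derived from response.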

| SMILES | IC50 [1] [nM] | DC50 [2] [nM] | Dmax [2] [%] | DC50 [3] [nM] | Dmax [3] [%] | Ratio of GSPT1 DC50/Cyclin E1 DC50 [3] | Emax [1] [%] |
| --- | --- | --- | --- | --- | --- | --- | --- |
| O=C1CCC(N2Cc3ccc(COC(=O)Nc4ccc(Oc5ccccc5F)cc4)c(Oc4ccccc4)c3C2=O)C(=O)N1 (centres unmarked) [Example 65, [2-(2,6-dioxopiperidin-3-yl)-3-oxo-4-phenoxy-2,3-dihydro-1H-isoindol-5-yl]methyl N-[4-(2-fluorophenoxy)phenyl]carbamate] | 59 | > 14000 | 0 | 164 | 101 | >85 | 127 |
| O=C1CCC(N2Cc3ccc(COC(=O)Nc4ccc(Oc5ccccc5Cl)cc4)c(Oc4ccccc4)c3C2=O)C(=O)N1 (centres unmarked) [Example 66, [2-(2,6-dioxopiperidin-3-yl)-3-oxo-4-phenoxy-2,3-dihydro-1H-isoindol-5-yl]methyl N-[4-(2-chlorophenoxy)phenyl]carbamate] | 55 | > 14000 | 19 | 111 | 103 | >126 | 148 |
| O=C1CCC(N2Cc3ccc(COC(=O)Nc4ccc(Oc5ccc(F)cc5F)cc4)c(Oc4ccccc4)c3C2=O)C(=O)N1 (centres unmarked) [Example 67, [2-(2,6-dioxopiperidin-3-yl)-3-oxo-4-phenoxy-2,3-dihydro-1H-isoindol-5-yl]methyl N-[4-(2,4-difluorophenoxy)phenyl]carbamate] | 144 | > 14000 | 10 | 112 | 99 | >125 | 127 |
| O=C1CCC(N2Cc3ccc(COC(=O)Nc4ccc(Oc5cccc(F)c5F)cc4)c(Oc4ccccc4)c3C2=O)C(=O)N1 (centres unmarked) [Example 68, [2-(2,6-dioxopiperidin-3-yl)-3-oxo-4-phenoxy-2,3-dihydro-1H-isoindol-5-yl]methyl N-[4-(2,3-difluorophenoxy)phenyl]carbamate] | 83 | > 14000 | 16 | 179 | 107 | >78 | 127 |
| O=C1CCC(N2Cc3ccc(COC(=O)Nc4ccc(Oc5ccc(F)cc5Cl)cc4)c(Oc4ccccc4)c3C2=O)C(=O)N1 (centres unmarked) [Example 70, [2-(2,6-dioxopiperidin-3-yl)-3-oxo-4-phenoxy-2,3-dihydro-1H-isoindol-5-yl]methyl N-[4-(2-chloro-4-fluorophenoxy)phenyl]carbamate] | 223 | > 14000 | 9 | 185 | 94 | >76 | 114 |
| COc1c(COC(=O)Nc2ccc(Oc3ccc(Cl)c(F)c3)cc2)ccc2c1C(=O)N(C1CCC(=O)NC1=O)C2 (centres unmarked) [Example 71, [2-(2,6-dioxopiperidin-3-yl)-4-methoxy-3-oxo-2,3-dihydro-1H-isoindol-5-yl]methyl N-[4-(4-chloro-3-fluorophenoxy)phenyl]carbamate] | 234 | > 14000 | 27 | 241 | 105 | >58 | 97 |
| COc1cc(Oc2cc(F)c(F)c(F)c2)ccc1NC(=O)OCc1ccc2c(c1OC)C(=O)N(C1CCC(=O)NC1=O)C2 (centres unmarked) [Example 72, [2-(2,6-dioxopiperidin-3-yl)-4-methoxy-3-oxo-2,3-dihydro-1H-isoindol-5-yl]methyl N-[2-methoxy-4-(3,4,5-trifluorophenoxy)phenyl]carbamate] | 364 | > 14000 | 5 | 394 | 103 | >36 | 120 |
| COc1cc(Oc2cc(F)c(F)cc2C)ccc1NC(=O)OCc1ccc2c(c1OC)C(=O)N(C1CCC(=O)NC1=O)C2 (centres unmarked) [Example 73, [2-(2,6-dioxopiperidin-3-yl)-4-methoxy-3-oxo-2,3-dihydro-1H-isoindol-5-yl]methyl N-[4-(4,5-difluoro-2-methylphenoxy)-2-methoxyphenyl]carbamate] | 272 | > 14000 | 27 | 312 | 102 | >45 | 118 |
| COc1c(COC(=O)Nc2ccc(Oc3cc(F)c(F)cc3C)cc2C)ccc2c1C(=O)N(C1CCC(=O)NC1=O)C2 (centres unmarked) [Example 74, [2-(2,6-dioxopiperidin-3-yl)-4-methoxy-3-oxo-2,3-dihydro-1H-isoindol-5-yl]methyl N-[4-(4,5-difluoro-2-methylphenoxy)-2-methylphenyl]carbamate] | 53 | > 14000 | 37 | 222 | 111 | >63 | 116 |
| COc1c(COC(=O)Nc2ccc(Oc3ccc(F)cc3C)cc2C)ccc2c1C(=O)N(C1CCC(=O)NC1=O)C2 (centres unmarked) [Example 76, [2-(2,6-dioxopiperidin-3-yl)-4-methoxy-3-oxo-2,3-dihydro-1H-isoindol-5-yl]methyl N-[4-(4-fluoro-2-methylphenoxy)-2-methylphenyl]carbamate] | 104 | > 14000 | 33 | 267 | 111 | >52 | 122 |
| COc1c(COC(=O)Nc2ccc(Oc3cc(F)c(F)c(F)c3)cc2)ccc2c1C(=O)N(C1CCC(=O)NC1=O)C2 (centres unmarked) [Example 77, [2-(2,6-dioxopiperidin-3-yl)-4-methoxy-3-oxo-2,3-dihydro-1H-isoindol-5-yl]methyl N-[4-(3,4,5-trifluorophenoxy)phenyl]carbamate] | 163 | > 14000 | 32 | 284 | 113 | >49 | 94 |
| COc1c(COC(=O)Nc2ccc(Oc3cc(F)c(F)cc3C)cc2)ccc2c1C(=O)N(C1CCC(=O)NC1=O)C2 (centres unmarked) [Example 78, [2-(2,6-dioxopiperidin-3-yl)-4-methoxy-3-oxo-2,3-dihydro-1H-isoindol-5-yl]methyl N-[4-(4,5-difluoro-2-methylphenoxy)phenyl]carbamate] | 165 | > 14000 | 2 | 316 | 113 | >44 | 126 |

Further lines, with some results ahead:

| IC50 [1] [nM] | DC50 [2] [nM] | Dmax [2] [%] | DC50 [3] [nM] | Dmax [3] [%] | Ratio of GSPT1 DC50/Cyclin E1 DC50 [3] | SMILES | Emax [1] [%] |
| --- | --- | --- | --- | --- | --- | --- | --- |
| 136 | > 14000 | 41 | 113 | 104 | >124 | O=C1CCC(N2Cc3ccc(COC(=O)Nc4ccc(Oc5ccc(F)c(F)c5)cc4)c(Oc4ccccc4)c3C2=O)C(=O)N1 (centres unmarked) [Example 63, [2-(2,6-dioxopiperidin-3-yl)-3-oxo-4-phenoxy-2,3-dihydro-1H-isoindol-5-yl]methyl N-[4-(3,4-difluorophenoxy)phenyl]carbamate] | 121 |
| 83 | > 14000 | 22 | 133 | 109 | >105 | O=C1CCC(N2Cc3ccc(COC(=O)Nc4ccc(Oc5cccc(F)c5)cc4)c(Oc4ccccc4)c3C2=O)C(=O)N1 (centres unmarked) [Example 64, [2-(2,6-dioxopiperidin-3-yl)-3-oxo-4-phenoxy-2,3-dihydro-1H-isoindol-5-yl]methyl N-[4-(3-fluorophenoxy)phenyl]carbamate] | 111 |
| 94 | > 14000 | 11 | 263 | 105 | >53 | O=C1CCC(N2Cc3ccc(COC(=O)Nc4ccc(Oc5ccc(F)c(F)c5)cc4F)c(Oc4ccccc4)c3C2=O)C(=O)N1 (centres unmarked) [Example 69, [2-(2,6-dioxopiperidin-3-yl)-3-oxo-4-phenoxy-2,3-dihydro-1H-isoindol-5-yl]methyl N-[4-(3,4-difluorophenoxy)-2-fluorophenyl]carbamate] | 125 |
| 287 | > 14000 | 23 | 328 | 109 | >43 | COc1cc(Oc2ccc(F)cc2C)ccc1NC(=O)OCc1ccc2c(c1OC)C(=O)N(C1CCC(=O)NC1=O)C2 (centres unmarked) [Example 75, [2-(2,6-dioxopiperidin-3-yl)-4-methoxy-3-oxo-2,3-dihydro-1H-isoindol-5-yl]methyl N-[4-(4-fluoro-2-methylphenoxy)-2-methoxyphenyl]carbamate] | 120 |
| 128 | > 14000 | 31 | 375 | 112 | >37 | COc1c(COC(=O)Nc2ccc(Oc3ccccc3F)cc2)ccc2c1C(=O)N(C1CCC(=O)NC1=O)C2 (centres unmarked) [Example 79, [2-(2,6-dioxopiperidin-3-yl)-4-methoxy-3-oxo-2,3-dihydro-1H-isoindol-5-yl]methyl N-[4-(2-fluorophenoxy)phenyl]carbamate] | 120 |
